# According to ChEMBL document CHEMBL3217563, “Second generation analogues of RKA182: synthetic tetraoxanes with outstanding in vitro and in vivo antimalarial activities” (Medchemcomm, 2011):
# Columns and labels:
# Plasmodium falciparum [1] = assay: Antiplasmodial activity against chloroquine-resistant Plasmodium falciparum K1 infected in human erythrocytes assessed as [3H]hypoxanthine incorporation after 48 hrs by betaplate liquid scintillation counting analysis; assay type: functional, organism-based
# Mus musculus = assay: Antimalarial activity against Plasmodium berghei ANKA infected in po dosed mouse assessed as suppression of parasitaemia administered for 3 days measured on day 4 relative to control; assay type: functional
# Plasmodium berghei = assay: Antimalarial activity against Plasmodium berghei ANKA infected in mouse assessed as suppression of parasitaemia at 30 mg/kg, po administered for 3 days measured on day 4 relative to control; assay type: functional
# Plasmodium falciparum [2] = assay: Antiplasmodial activity against Plasmodium falciparum 3D7 infected in human erythrocytes assessed as [3H]hypoxanthine incorporation after 48 hrs by betaplate liquid scintillation counting analysis; assay type: functional, organism-based
# Plasmodium falciparum [3] = assay: Selectivity ratio of IC50 for Plasmodium falciparum 3D7 infected in human erythrocytes to IC50 for Plasmodium falciparum K1 infected in human erythrocytes; assay type: functional
# [4] = Metabolic stability in human liver microsomes assessed as compound remaining at 10 ug/ml after 10 mins by LC/MS/MS analysis relative to control; assay type: ADME; details: read-out: Stability
# [5] = Metabolic stability in human liver microsomes assessed as compound remaining at 10 ug/ml after 60 mins by LC/MS/MS analysis relative to control; assay type: ADME; details: read-out: Stability
# [6] = Metabolic stability in human liver microsomes assessed as compound remaining at 10 ug/ml after 30 mins by LC/MS/MS analysis relative to control; assay type: ADME; details: read-out: Stability
smiles,measurement,setting,value
C[C@H]1[C@H](OC(=O)CCC(=O)O)O[C@@H]2O[C@@]3(C)CC[C@H]4[C@H](C)CC[C@@H]1[C@@]24OO3 [ARTESUNATE],IC50,Plasmodium falciparum [1],4.9 nM
same,ED50,Mus musculus,2.8 mg/kg
same,ED90,Mus musculus,18 mg/kg
same,Activity,Plasmodium berghei,99.6%
O=C1CN(C2CCC3(CC2)OOC2(OO3)C3CC4CC(C3)CC2C4)CCN1 (stereo not drawn),IC50,"Plasmodium falciparum [2]; Plasmodium falciparum, 3D7",3.5 nM
same,Activity,Plasmodium berghei,98.8%
C1C2CC3CC1CC(C2)C31OOC2(CCC(NC3CC3)CC2)OO1 (stereo not drawn),IC50,"Plasmodium falciparum [2]; Plasmodium falciparum, 3D7",1.5 nM
same,Activity,Plasmodium berghei,99.7%
O=S1(=O)CC[N+]([O-])(C2CCC3(CC2)OOC2(OO3)C3CC4CC(C3)CC2C4)CC1 (stereo not drawn),IC50,"Plasmodium falciparum [2]; Plasmodium falciparum, 3D7",3.7 nM
same,IC50,Plasmodium falciparum [1],2.5 nM
FC1(F)CCC(NC2CCC3(CC2)OOC2(OO3)C3CC4CC(C3)CC2C4)CC1 (stereo not drawn),IC50,"Plasmodium falciparum [2]; Plasmodium falciparum, 3D7",0.4 nM
same,IC50,Plasmodium falciparum [1],0.9 nM
CC(C)(C)NC1CCC2(CC1)OOC1(OO2)C2CC3CC(C2)CC1C3 (stereo not drawn),IC50,"Plasmodium falciparum [2]; Plasmodium falciparum, 3D7",1.3 nM
same,Activity,Plasmodium berghei,98.7%
C1CCN(C2CCC3(CC2)OOC2(OO3)C3CC4CC(C3)CC2C4)CC1 (stereo not drawn),IC50,"Plasmodium falciparum [2]; Plasmodium falciparum, 3D7",0.6 nM
same,IC50,Plasmodium falciparum [1],0.4 nM
CN1CCC(NC2CCC3(CC2)OOC2(OO3)C3CC4CC(C3)CC2C4)CC1 (stereo not drawn),IC50,"Plasmodium falciparum [2]; Plasmodium falciparum, 3D7",0.4 nM
same,IC50,Plasmodium falciparum [1],1.1 nM
same,Activity,Plasmodium berghei,99.2%
C1CCN(C2CCN(C3CCC4(CC3)OOC3(OO4)C4CC5CC(C4)CC3C5)CC2)CC1 (stereo not drawn),Ratio IC50,Plasmodium falciparum [3],25
same,IC50,"Plasmodium falciparum [2]; Plasmodium falciparum, 3D7",2.4 nM
same,IC50,Plasmodium falciparum [1],0.2 nM
same,Activity,Plasmodium berghei,99.7%
C1CN(C2CCC3(CC2)OOC2(OO3)C3CC4CC(C3)CC2C4)CCO1 (stereo not drawn),IC50,"Plasmodium falciparum [2]; Plasmodium falciparum, 3D7",0.4 nM
same,IC50,Plasmodium falciparum [1],0.4 nM
CN1CCN(C2CCN(C(=O)CC3CCC4(CC3)OOC3(OO4)C4CC5CC(C4)CC3C5)CC2)CC1 (stereo not drawn),"remaining at 10 min, 10 ug/ml",[4],62.9%
same,IC50,"Plasmodium falciparum [2]; Plasmodium falciparum, 3D7",0.819 nM
same,"remaining at 1 h, 10 ug/ml",[5],39.5%
same,IC50,Plasmodium falciparum [1],1.12 nM
same,"remaining at 0.5 h, 10 ug/ml",[6],40.6%
C1CC(NC2CCC3(CC2)OOC2(OO3)C3CC4CC(C3)CC2C4)CCO1.Cl (stereo not drawn),IC50,Plasmodium falciparum [2],1 nM
same,ED50,Mus musculus,2.3 mg/kg
same,ED90,Mus musculus,11 mg/kg
C1CCN(C2CCC3(CC2)OOC2(OO3)C3CC4CC(C3)CC2C4)C1 (stereo not drawn),IC50,"Plasmodium falciparum [2]; Plasmodium falciparum, 3D7",0.7 nM
same,IC50,Plasmodium falciparum [1],1 nM
same,Activity,Plasmodium berghei,99.8%
C1CCC(NC2CCC3(CC2)OOC2(OO3)C3CC4CC(C3)CC2C4)CC1 (stereo not drawn),Ratio IC50,Plasmodium falciparum [3],25
same,IC50,"Plasmodium falciparum [2]; Plasmodium falciparum, 3D7",0.4 nM
same,IC50,Plasmodium falciparum [1],0.2 nM
NC1CCN(C2CCC3(CC2)OOC2(OO3)C3CC4CC(C3)CC2C4)CC1 (stereo not drawn),"remaining at 10 min, 10 ug/ml",[4],86.7%
same,IC50,Plasmodium falciparum [2],1.2 nM
same,"remaining at 1 h, 10 ug/ml",[5],57.4%
same,IC50,Plasmodium falciparum [1],1.2 nM
same,"remaining at 0.5 h, 10 ug/ml",[6],73.6%
Cc1ccc(S(=O)(=O)O)cc1.NC1CCN(C2CCC3(CC2)OOC2(OO3)C3CC4CC(C3)CC2C4)CC1 (stereo not drawn),IC50,Plasmodium falciparum [2],2.5 nM
same,ED50,Mus musculus,3.7 mg/kg
same,ED90,Mus musculus,10 mg/kg
same,Activity,Plasmodium berghei,99.9%
FC1(F)CCN(C2CCC3(CC2)OOC2(OO3)C3CC4CC(C3)CC2C4)CC1 (stereo not drawn),IC50,"Plasmodium falciparum [2]; Plasmodium falciparum, 3D7",0.6 nM
same,IC50,Plasmodium falciparum [1],1.3 nM
same,ED50,Mus musculus,9.4 mg/kg
same,ED90,Mus musculus,34 mg/kg
same,Activity,Plasmodium berghei,99.8%
C1CC(NC2CCC3(CC2)OOC2(OO3)C3CC4CC(C3)CC2C4)CCO1 (stereo not drawn),IC50,"Plasmodium falciparum [2]; Plasmodium falciparum, 3D7",0.7 nM
same,IC50,Plasmodium falciparum [1],0.4 nM
same,ED50,Mus musculus,2.8 mg/kg
same,ED90,Mus musculus,18 mg/kg
CC(C)(C)OC(=O)NC1CCN(C2CCC3(CC2)OOC2(OO3)C3CC4CC(C3)CC2C4)CC1 (stereo not drawn),IC50,"Plasmodium falciparum [2]; Plasmodium falciparum, 3D7",1 nM
